From publication PMC8206213, “An L-2-hydroxyglutarate biosensor based on specific transcriptional regulator LhgR” (Nature Communications, 2021)
Where “and” joins values, the source holds several entries; their conditions need not be identical. Identical values can stand only once. Like-named read-outs stand apart in the source and are kept apart here.

Columns and labels:
HEK293FT cells = test: Hypoxia-induced L-2-HG production in LHGFR-expressing HEK293FT cells with or without 5 mM DMαKG; assay type: cell-based, human; details: 5 mM, hypoxic conditions, 24 h
Description: HEK293FT cells were cultured in high-glucose Dulbecco’s modified eagle medium (DMEM) supplemented with 10% (vol/vol) fetal bovine serum (FBS), 100 units mL^−1 penicillin, and 100 μg mL^−1 streptomycin (all purchased from ThermoFisher, USA), and kept at 37 °C in humidified air containing 5% CO2. For hypoxia experiments, cells were kept in a compact O2 and CO2 subchamber controller (ProOx C21, BioSpherix, USA) at 2% O2, 5% CO2, and balanced with N2 for 24 h. For the construction of LHGFR expressing cell, HEK293FT cells were plated in 24-well plates so that they reached 70-90% confluency 24 h after plating, the medium was refreshed 2 h before transfection.
The preparation of cell suspensions and the measurement of emission ratios were performed using the same procedure. The background fluorescence was subtracted at each emission wavelength.

LhgR = test: EMSA, effect of compounds on LhgR binding to the lhgO promoter region F1; parameters: species or system Pseudomonas putida W619; details: 50 mM compound, 10 nM F1, 60 nM LhgR
Description: Electrophoretic mobility shift assays (EMSAs) were carried out using the DNA fragment (F1 or F2) and purified LhgR. The DNA fragments were first amplified by primer pairs F1-F/F1-R and F2-F/F2-R, respectively. Then, either fragment at a concentration of 10 nM DNA was incubated with LhgR (0–160 nM) in 20 μL EMSA binding buffer (10 mM Tris-HCl [pH 7.4], 50 mM KCl, 0.5 mM EDTA, 10% [vol/vol] glycerol, and 1 mM dithiothreitol [DTT]). The binding reactions were carried out at 30 °C for 30 min. Electrophoresis was performed on 6% native polyacrylamide gels at 4 °C and 170 V (constant voltage) for about 45 min, followed by staining with SYBR green I (TaKaRa, China) and photographing. Analysis of the interaction between lhgO promoter region (F1) and LHGFR was performed using the same procedure.
To characterize the effector of LhgR, purified LhgR was first incubated with L-lysine, 5-aminovalerate, glutarate, L-2-HG, D-2-HG, 2-KG, or succinate at 30 °C for 15 min, followed by incubation with the added DNA fragments at 30 °C for 30 min. The mixtures were subsequently subjected to electrophoresis.

LHGFR0N3C [1] = test: Specificity of purified LHGFR0N3C, emission ratio with 240 μM compounds; assay type: binding, Pseudomonas putida W619; details: 240 μM compound
Description: (§1) Purified L-2-HG biosensors and different compounds were diluted by 50 mM Tris-HCl buffer (pH 7.4), mixed together in a black 96-well plate at a volume ratio of 3:1, and the fluorescence intensities were measured using an EnSight microplate reader (PerkinElmer, USA) with excitation at 430 nm, emission at 485 nm (mTFP) and 528 nm (Venus). […] The [L-2-HG], Kd, and p refer to the L-2-HG concentration, apparent dissociation constant, and Hill slope, respectively. Emission spectra were recorded at 430 nm excitation, in steps of 2 nm. Excitation spectra were recorded using emission at 550 nm, excitation from 380 to 535 nm in steps of 2 nm.

LHGFR0N7C [2] = test: Specificity of purified LHGFR0N7C, emission ratio with 240 μM compounds; assay type: binding, Pseudomonas putida W619; details: 240 μM compound
Description: as §1

LHGFR0N3C [3] = test: Influence of other compounds on the response of purified LHGFR0N3C to L-2-HG; assay type: binding, Pseudomonas putida W619; details: Suppl. Fig. 9a; L-2-HG alone or with the compound; three replicates
Description: as §1

LHGFR0N7C [4] = test: Influence of other compounds on the response of purified LHGFR0N7C to L-2-HG; assay type: binding, Pseudomonas putida W619; details: Suppl. Fig. 9b; L-2-HG alone or with the compound; three replicates
Description: as §1

P. putida KT2440 [5] = assay type: cell-based, Pseudomonas putida KT2440; details: Fig. 4j
Description: The bacterial strains used in this study are listed in Supplementary Data 1. E. coli and its derivatives were cultured in Luria–Bertani (LB) broth at 37 °C and 180 rpm. P. putida KT2440 and its derivatives were grown in minimal salt mediums (MSMs) containing different carbon sources at 30 °C and 200 rpm. Antibiotics were used at the following concentrations: tetracycline at 30 μg mL^−1; kanamycin at 50 μg mL^−1; ampicillin at 100 μg mL^−1; spectinomycin, at 50 μg mL^−1; and chloramphenicol at 40 μg mL^−1.

P. putida KT2440 [6] = assay type: cell-based, Pseudomonas putida KT2440

COC(=O)CCC(=O)C(=O)OC [dimethyl-2-ketoglutarate]
Effect on emission ratio of LHGFR0N3C (HEK293FT cells): significantly increased the emission ratio of LHGFR0N3C under hypoxic conditions

O=C(O)CCC(=O)C(=O)O [2-KG, 2-ketoglutarate]
Effect on LhgR binding to the lhgO promoter region F1 (LhgR): observed only in the presence of L-2-HG
Emission ratio (LHGFR0N3C [1]): 1.349 and 1.385 and 1.381
Induction of emission ratio changes (LHGFR0N3C [1]): None
Emission ratio (LHGFR0N7C [2]): 1.701 and 1.693 and 1.728
Induction of emission ratio changes (LHGFR0N7C [2]): None
Emission ratio (LHGFR0N3C [3]): 2.007 and 2.049 and 2.099
Emission ratio (LHGFR0N7C [4]): 2.436 and 2.603 and 2.441

OC[C@H]1OC(O)[C@H](O)[C@@H](O)[C@@H]1O (stereo partly shown) [Glucose, glucose]
Growth (P. putida KT2440 [5]; DlhgO, 0 h): 0.077 and 0.079 and 0.073
Growth (P. putida KT2440 [5]; DlhgO, 2 h): 0.083 and 0.078 and 0.075
Growth (P. putida KT2440 [5]; DlhgO, 4 h): 0.24 and 0.208 and 0.228
Growth (P. putida KT2440 [5]; DlhgO, 6 h): 0.666 and 0.603 and 0.661
Growth (P. putida KT2440 [5]; DlhgO, 8 h): 1.5 and 1.401 and 1.461
Growth (P. putida KT2440 [5]; DlhgO, 10 h): 3.165 and 3.065
Growth (P. putida KT2440 [5]; DlhgO, 12 h): 3.835 and 3.65 and 3.86
Growth (P. putida KT2440 [5]; DlhgO, 14 h): 3.605 and 3.535 and 3.66
Growth (P. putida KT2440 [5]; DlhgO, 16 h): 3.66 and 3.5 and 3.7
Growth (P. putida KT2440 [5]; WT, 0 h): 0.077 and 0.08 and 0.081
Growth (P. putida KT2440 [5]; WT, 2 h): 0.079 and 0.092
Growth (P. putida KT2440 [5]; WT, 4 h): 0.25 and 0.292 and 0.281
Growth (P. putida KT2440 [5]; WT, 6 h): 0.635 and 0.605 and 0.701
Growth (P. putida KT2440 [5]; WT, 8 h): 1.404 and 1.446 and 1.5
Growth (P. putida KT2440 [5]; WT, 10 h): 2.675 and 2.785 and 2.9
Growth (P. putida KT2440 [5]; WT, 12 h): 3.11 and 3.205 and 3.1
Growth (P. putida KT2440 [5]; WT, 14 h): 3.13 and 3.115 and 3.035
Growth (P. putida KT2440 [5]; WT, 16 h): 3.015 and 3.115 and 3.15
Extracellular L-2-HG accumulation (P. putida KT2440 [6]; DlhgO, 0 h, Fig. 4l): 0.0018 and 0.00159 and 0.00178
Extracellular L-2-HG accumulation (P. putida KT2440 [6]; DlhgO, 2 h, Fig. 4k): 0.00214 and 0.00144 and 0.00151
Extracellular L-2-HG accumulation (P. putida KT2440 [6]; DlhgO, 2 h, Fig. 4l): 0.00161 and 0.00173 and 0.00155
Extracellular L-2-HG accumulation (P. putida KT2440 [6]; DlhgO, 4 h, Fig. 4l): 0.00126 and 0.00158 and 0.00143
Extracellular L-2-HG accumulation (P. putida KT2440 [6]; DlhgO, 6 h, Fig. 4k): 0.0027 and 0.00158 and 0.00192
Extracellular L-2-HG accumulation (P. putida KT2440 [6]; DlhgO, 6 h, Fig. 4l): 0.00592 and 0.00434 and 0.00414
Extracellular L-2-HG accumulation (P. putida KT2440 [6]; DlhgO, 8 h, Fig. 4l): 0.00588 and 0.0049 and 0.00675
Extracellular L-2-HG accumulation (P. putida KT2440 [6]; DlhgO, 10 h, Fig. 4k): 0.00624 and 0.00847 and 0.00636
Extracellular L-2-HG accumulation (P. putida KT2440 [6]; DlhgO, 10 h, Fig. 4l): 0.00724 and 0.00794 and 0.00631
Extracellular L-2-HG accumulation (P. putida KT2440 [6]; DlhgO, 12 h, Fig. 4k): 0.0023 and 0.00219 and 0.00146
Extracellular L-2-HG accumulation (P. putida KT2440 [6]; DlhgO, 12 h, Fig. 4l): 0.0051 and 0.00546 and 0.00628
Extracellular L-2-HG accumulation (P. putida KT2440 [6]; DlhgO, 14 h, Fig. 4l): 0.00618 and 0.0058 and 0.00573
Extracellular L-2-HG accumulation (P. putida KT2440 [6]; DlhgO, 16 h, Fig. 4k): 0.00357 and 0.00321 and 0.00356
Extracellular L-2-HG accumulation (P. putida KT2440 [6]; DlhgO, 16 h, Fig. 4l): 0.00553 and 0.0046 and 0.00552
Extracellular L-2-HG accumulation (P. putida KT2440 [6]; WT, 0 h, Fig. 4k): 6.56E-04 and 9.68E-04 and 7.73E-04
Extracellular L-2-HG accumulation (P. putida KT2440 [6]; WT, 0 h, Fig. 4l): 9.79E-04 and 0.00104 and 6.27E-04
Extracellular L-2-HG accumulation (P. putida KT2440 [6]; WT, 2 h, Fig. 4k): 1.95E-04 and 2.26E-04 and 1.15E-04
Extracellular L-2-HG accumulation (P. putida KT2440 [6]; WT, 2 h, Fig. 4l): 0.00114 and 7.97E-04 and 9.51E-04
Extracellular L-2-HG accumulation (P. putida KT2440 [6]; WT, 4 h, Fig. 4l): 5.39E-04 and 5.72E-04 and 5.29E-04
Extracellular L-2-HG accumulation (P. putida KT2440 [6]; WT, 6 h, Fig. 4l): 0.00521 and 0.00557 and 0.00468
Extracellular L-2-HG accumulation (P. putida KT2440 [6]; WT, 8 h, Fig. 4k): 0.00293 and 0.00233 and 0.00276
Extracellular L-2-HG accumulation (P. putida KT2440 [6]; WT, 8 h, Fig. 4l): 0.0081 and 0.00438 and 0.0052
Extracellular L-2-HG accumulation (P. putida KT2440 [6]; WT, 10 h, Fig. 4l): 0.00453 and 0.00483 and 0.00472
Extracellular L-2-HG accumulation (P. putida KT2440 [6]; WT, 12 h, Fig. 4l): 0.00448 and 0.00573 and 0.00522
Extracellular L-2-HG accumulation (P. putida KT2440 [6]; WT, 14 h, Fig. 4k): 0.00683 and 0.00582 and 0.00462
Extracellular L-2-HG accumulation (P. putida KT2440 [6]; WT, 14 h, Fig. 4l): 0.0046 and 0.00456 and 0.00492
Extracellular L-2-HG accumulation (P. putida KT2440 [6]; WT, 16 h, Fig. 4k): 0
Extracellular L-2-HG accumulation (P. putida KT2440 [6]; WT, 16 h, Fig. 4l): 0.00403 and 0.00579 and 0.0044

O=C(O)CCC(=O)O [Succinate, succinate]
Effect on LhgR binding to the lhgO promoter region F1 (LhgR): observed only in the presence of L-2-HG
Emission ratio (LHGFR0N3C [1]): 1.357 and 1.389 and 1.4025
Induction of emission ratio changes (LHGFR0N3C [1]): None
Emission ratio (LHGFR0N7C [2]): 1.718 and 1.724 and 1.726
Induction of emission ratio changes (LHGFR0N7C [2]): None
Emission ratio (LHGFR0N3C [3]): 2.013 and 2.0132 and 2.099
Emission ratio (LHGFR0N7C [4]): 2.581 and 2.619 and 2.616
